Literature values, collected in patent EP3466870B1, “SURFACE-MODIFIED SODIUM HYPOCHLORITE PENTAHYDRATE CRYSTAL, AND METHOD FOR PRODUCING SAME” (Nippon Light Metal Company, Ltd., priority 2016, dated 2017).
Read-outs that look alike come from different tables or passages of the source.

Details: in water at 25°C

SMILES | pKa (first value listed) | pKa (second value listed)
O=C(O)O [carbonic acid] | 6.11 | 9.87
O=C(O)C(=O)O [oxalic acid] | 1.04 | 3.82
